Experimental data published in US9700531B2, “Composition comprising metformin as active ingredient for preventing or treating inflammatory bowel disease” (CATHOLIC UNIVERSITY INDUSTRY ACADEMIC COOPERATION FOUNDATION, priority 2012, dated 2017).
Entries after “also recorded” stand apart in the source; their conditions may differ.

Columns and labels:
[1] = test system: spleen cells of a normal mouse group; assay: ROS measurement by FACs (ROS antibody, FITC) in spleen cells of a normal mouse group; format: cell-based; conditions: cells collected at 3 days after treatment
Description: The oxidative stress was known to be an important factor involved in the inflammatory responses of various autoimmune diseases. […] Enbrel®) composite and at 3 days later, each cell was collected and reacted with an ROS antibody with a FITC wavelength range, and then, was measured using fluorescence activated cell sorting (FACs).

[2] = test system: lymph node of the group with an inflammatory bowel disease; assay: Expression of inflammatory cytokines in lymph node of mouse injected with Metformin; format: in vivo
Description: FIG. 7 illustrates the result of measuring the inflammatory cytokine regulations caused by Metformin in the lymph node tissues and cells of the group with an inflammatory bowel disease.

[3] = test system: spleen cells of a normal mouse group; assay: ELISA of cytokines in culture media of treated cells of the normal mouse group; format: cell-based; conditions: culture media collected at 3 days after treatment
Description: The inventors treated Metformin and the Metformin-Etanercept (Product Name: Enbrel®) composite to the cells of the normal mouse group to identify the effects of Etanercept (Product Name: Enbrel®) and Metformin on the expression of cytokine.

[4] = test system: STAT3, mTOR, AMPK, STAT5 in spleen tissue; assay: Signaling molecules in spleen of mouse administered with Metformin (tissue confocal, spleen cell proteins); format: in vivo
[5] = test system: inflammatory bowel disease-induced animal model; assay: Inflammatory bowel disease animal model (3.5% DSS water for a week): weight, survival, thickness of small intestine, length of large intestine; format: in vivo, C57BL/6(H-2kb) mouse; conditions: for thickness of the intestine: Metformin 5 mg oral, Etanercept 100 μg subcutaneous or composite, at 3 days after induction
Description: The inventors of the present invention first prepared the animal model with an inflammatory bowel disease in order to identify whether the Metformin of the present invention can treat an inflammatory bowel disease. For an experimental animal, a C57BL/6(H-2kb) mouse was used, and to prepare the animal model with an inflammatory bowel disease, the mouse taken with 3.5% dextran sulfate sodium (DSS) water for a week to prepare an animal model with an inflammatory bowel disease.
The inventors divided the experimental animals into an inflammatory bowel disease-induced animal model group, and an inflammatory bowel disease-induced animal model group, which was administered with Metformin, and for the group being administered with Metformin, 5 mg of Metformin was orally administered at 3 days after the disease was induced.

[6] = test system: cell line of human large intestine; assay: Gene expression of inflammatory cytokines in cell line of human large intestine treated with Metformin; format: cell-based
Description: The gene expressions of the inflammatory cytokines TNF-α, IL-8, and IL-1b were investigated after the cell line of human large intestine was treated with Metformin.

[7] = test system: Th17 cell and regulatory Treg cell in the spleen; assay: Th17 cells and regulatory Treg cells in spleen of mouse injected with Metformin (confocal assay); format: in vivo
[8] = test system: colorectal tissues of the group with an inflammatory bowel disease; assay: Expression of inflammatory cytokines in colorectal tissues and cells of the large intestine of mouse injected with Metformin; format: in vivo
Description: FIGS. 6A-6B illustrate the results of measuring the inflammatory cytokine regulations caused by Metformin in the colorectal tissues and colorectal cells of the group with an inflammatory bowel disease.
Furthermore, the expressions of the inflammatory cytokine IL-10 and TGF-b were increased by Metformin.

[9] = test system: spleen cells of a normal mouse group
[10] = 5 mg Metformin orally 3 days after induction, versus control group
[11] = 5 mg Metformin orally, the words describe the control group relative to the Metformin group

With `CN(C)C(=N)NC(=N)N` [Metformin] the ROS inhibition [1] was “no ROS inhibitory effect; also recorded: no effects of ROS inhibition”, the “gene expression of IL-6 in lymph node” value [2] was “considerable decreases” and the “gene expression of IL-17 in lymph node” value [2] was “considerable decreases”. The “gene expression of IL-21 in lymph node” value [2] was “considerable decreases”, the “gene expression of TNF-α in lymph node” value [2] was “considerable decreases” and the “expression of IL-17 (ELISA)” value [3] was “effective in inhibiting”. The “activated AMPK” value ([4]; spleen cell proteins) was “increased”, the “phosphorylated STAT3, 705, and 727” value ([4]; spleen cell proteins) was “significantly inhibited” and the “activity of STA3 in spleen cells” value ([4]; tissue confocal) was “considerably inhibited”. The “activity of mTOR in spleen cells” value ([4]; tissue confocal) was “considerably inhibited”, the “cells with the activated AMPK” value ([4]; tissue confocal, spleen) was “increased” and the “cells with the activated STAT5” value ([4]; tissue confocal, spleen) was “increased”. For the same molecule, the “survival rates (in words)” value [5, 10] was “higher survival rates”, the “weights (in words)” value [5, 10] was “increase in weights” and the survival rate ([5]; 5 mg Metformin orally at 3 days after disease induction, control group had low survival rate) was 100%. For the same molecule, the “length of large intestine (histological findings)” value [5, 11] was “shortened length was observed”, the “thickness of small intestine (histological findings)” value [5, 11] was “narrower than the group treated with Metformin” and the “thickness of the intestine” value ([5]; versus control group) was “thicker”. The “gene expression of IL-1b” value [6] was “inhibited in a Metformin concentration dependent manner”, the “gene expression of IL-8” value [6] was “inhibited in a Metformin concentration dependent manner” and the “gene expression of TNF-α” value [6] was “inhibited in a Metformin concentration dependent manner”. For the same molecule, the “expressions of Th17 cells in spleen” value [7] was “considerably inhibited”, the “regulatory T cells that express Foxp3 in spleen” value [7] was “significantly increased” and the “expression of IL-6 in colorectal tissues (histological findings)” value [8] was “considerable decrease”. The “expression of IL-8 in colorectal tissues (histological findings)” value [8] was “considerable decrease”, the “expression of IL-17 in colorectal tissues (histological findings)” value [8] was “considerable decrease” and the “expression of TNF-α in colorectal tissues (histological findings)” value [8] was “considerable decrease”. The “gene expressions of the inflammatory cytokines in the cells of the large intestine” value [8] was “considerably inhibited”, the “Foxp3 (regulatory T cell factor)” value ([8]; large intestine) was “increased” and the “expression of IL-10” value ([8]; large intestine) was “increased”. For the same molecule, the “expression of TGF-b” value ([8]; large intestine) was “increased” and the “toxic effects (MTT assay)” value [9] was “no toxic effects”.
With Etanercept the ROS inhibition [1] was “no ROS inhibitory effect; also recorded: no effects of ROS inhibition”, the “expression of IL-17 (ELISA)” value [3] was “effective in inhibiting” and the “thickness of the intestine” value ([5]; versus control group) was “thicker”. For the same molecule, the “toxic effects (MTT assay)” value [9] was “no toxic effects”.
